Experiment [1] concerns the target T1, recombinant human Lp-PLA2 (Homo sapiens, UniProt Q13093).
T1 sequence (Q13093 22-441): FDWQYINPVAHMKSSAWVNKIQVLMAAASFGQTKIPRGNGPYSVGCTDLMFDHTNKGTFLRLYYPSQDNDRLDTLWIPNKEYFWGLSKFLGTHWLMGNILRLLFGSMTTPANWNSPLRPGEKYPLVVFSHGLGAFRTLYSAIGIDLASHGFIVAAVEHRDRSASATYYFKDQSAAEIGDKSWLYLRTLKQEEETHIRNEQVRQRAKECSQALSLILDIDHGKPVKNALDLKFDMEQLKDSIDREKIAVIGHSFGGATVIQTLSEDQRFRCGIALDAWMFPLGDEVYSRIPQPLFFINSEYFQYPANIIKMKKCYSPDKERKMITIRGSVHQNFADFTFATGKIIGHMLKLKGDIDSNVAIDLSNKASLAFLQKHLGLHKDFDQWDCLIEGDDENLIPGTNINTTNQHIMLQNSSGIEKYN
Nature of the experiment: (1b) hrThioPAF assay, recombinant human Lp-PLA2. The class given is biochemical. The following applies: Examples 266-412 were tested here, one experiment or average of multiple experiments, read-out: rhLp-PLA2 (pIC50) (converted). The source says:
1-O-Hexadecyl-2-deoxy-2-thio-S-acetyl-sn-glyceryl-3-phosphorylcholine (2-thio-PAF) is a substrate for PAF-hydrolases (PAF-AH) commercially available from Cayman Chemical. Upon cleavage with PAF-AH, the free thiol is released at the sn-2 position and can then react with 7-diethylamino-3-(4′-maleimidylphenyl)-4-methylcoumarin (CPM) a thiol-reactive coumarin. This reaction (Michael addition) results in an increase in fluorescence. Inhibitors of Lp-PLA2 therefore prevent this cleavage and no fluorescent increase is observed.
The Thio-PAF assay was run as an unquenched 20 μL assay. The source plate containing the compounds to be tested was prepared by making 1:3 (by volume) serial dilution of the compounds within DMSO on 384-well microplate. Then, 5 μL of the compounds on compound source plate were transferred into 384 well Greiner 784076 (black) plates using STAR+(Hamilton) liquid dispenser. 10 μL of recombinant human Lp-PLA2 enzyme (20 pM rhLp-PLA2 in assay buffer of 50 mM HEPES, pH 7.4, 150 mM NaCl, 1 mM CHAPS) was added to each well of the plate. 5 μL of substrate comprising 40 μM 2-thio-PAF [from ethanol stock], 40 μM CPM [from a DMSO stock] and 400 μM NEM (N-ethylmaleimide) [made fresh daily in DMSO] in assay buffer (50 mM HEPES, pH 7.4, 150 mM NaCl, 1 mM CHAPS) was added to 384 well Greiner 784076 black plates. Plates were vortexed for 10 sec. The plate was covered to protect it from light and incubated for 20 min at 25° C. The plates were read for fluorescence intensity at ex: 380 nm/em: 485 nm using Envision plate reader (Perkin Elmer). Raw data were transferred to Excel software and pIC50 data, curve and QC analysis was conducted by using XL fit module in Excel.

In experiment [2] the target is T2, Lp-PLA2 in human plasma (Homo sapiens, UniProt Q13093).
T2 construct: from tissue; host or cells: pooled human plasma
T2 sequence (Q13093 22-441): T1 sequence (Q13093 22-441)
The experiment is described as follows: (3b) Lp-PLA2 human plasma alternative Thio-PAF assay. The experiment is classed as biochemical. The following applies: pooled human plasma, read-out: pIC50 in the Lp-PLA2 human plasma assay (converted). How it is done: (3b) Alternative Thio-PAF Assay
The human plasma assay utilizes the same thioester analog of PAF as described in (1b) “hr ThioPAF” assay. This assay may detect the activity of Lp-PLA2 in human plasma, as determined by specific inhibition by Lp-PLA2 inhibitors.
The thio-PAF assay was run as a quenched 20 μL assay. Compounds source plate was prepared by making 1:3 (by volume) serial dilution of the compounds into pure DMSO on 96-well microplate. 5 μL of compounds on compound source plate were transferred to 96-well Corning 3686 (black) low-volume plates by STAR+(Hamilton) liquid dispenser. 10 μL pooled human plasma, which was previously aliquoted and frozen, was added. Plates were centrifuged for 30 sec at 1000 rpm. After 15 minutes preincubation at room temperature, 5 μL of substrate solution comprising 2 mM 2-thio-PAF [from ethanol stock], 52 μM CPM [from a DMSO stock] and 2.5 mM NEM (N-ethylmaleimide) [made fresh daily in DMSO] in assay buffer (50 mM HEPES, pH 7.4, 150 mM NaCl, 1 mM CHAPS) was added to 96-well Corning 3686 (black) low-volume plates. After 3 mins, reaction was quenched with 10 μL of 5% aqueous trifluoroacetic acid (TFA). Plates were centrifuged 30 sec at 1000 rpm, covered to protect from light and incubated for 10 min at room temperature. Plates were read at ex: 380 nm/em: 485 nm using Envision plate reader (Perkin Elmer). Raw data were transferred to Excel software and pIC50 data, curve and QC analysis was conducted by using XL fit module in Excel.

[3] abbreviates: (3b) alternative Thio-PAF assay, Examples of 266-412 were tested here.

Read-outs that look alike come from different tables or passages of the source.

As for `CC(C)(C)C(=O)N1CCN2c3cc(OCc4ccc(F)c(C#N)c4)nc(=O)n3CC2C1` (stereo not drawn) [Example E294, 2-Fluoro-5-(((9-oxo-2-pivaloyl-2,3,4,9,11,11a-hexahydro-1H-pyrazino[1′,2′:3,4]imidazo[1,2-c]pyrimidin-7-yl)oxy)methyl)benzonitrile 2,2,2-trifluoroacetate], the IC50 in experiment [1] was at most 10000 nM; in experiment [2] (setting [3]), at most 100 nM.

Consider `O=C([C@@H]1C[C@H](F)CN1)N1CCN2c3cc(OCc4ccc(F)c(F)c4)nc(=O)n3CC2C1` (stereo partly drawn) [Example E341, 7-((3,4-Difluorobenzyl)oxy)-2-((2S,4S)-4-fluoropyrrolidin-2-carbonyl)-3,4,11,11a-tetrahydro-1H-pyrazino[1′,2′:3,4]imidazo[1,2-c]pyrimidin-9(2H)-one], for which the results for the IC50 in experiment [1] and in experiment [2] (setting [3]) were at most 10000 nM and at most 100 nM, respectively.

Turning to `Cc1ccc(Oc2c(F)cc(COc3cc4n(c(=O)n3)CC3CN(C)CCN43)cc2F)cn1` (stereo not drawn) [Example E321, 7-((3,5-Difluoro-4-((6-methylpyridin-3-yl)oxy)benzyl)oxy)-2-methyl-3,4,11,11a-tetrahydro-1Hpyrazino[1′,2′:3,4]imidazo[1,2-c]pyrimidin-9(2H)-one], the values for the IC50 in experiment [1] and in experiment [2] (setting [3]) were at most 10000 nM and at most 100 nM, respectively.

Take `O=C1CN2c3cc(OCc4ccc(F)c(F)c4)nc(=O)n3CC2CN1` (stereo not drawn) [Example E356, 7-((3,4-difluorobenzyl)oxy)-11,11a-dihydro-1H-pyrazino[1′,2′:3,4]imidazo[1,2-c]pyrimidine-3,9(2H,4H)-dione]: the figures for the IC50 in experiment [1] and in experiment [2] (setting [3]) were at most 10000 nM and at most 100 nM, respectively.

For `CC(C)C(=O)N1CCN2c3cc(OCc4ccc(F)c(C#N)c4)nc(=O)n3CC2C1` (stereo not drawn) [Example E290, 2-Fluoro-5-(((2-isobutyryl-9-oxo-2,3,4,9,11,11a-hexahydro-1H-pyrazino[1′,2′:3,4]imidazo[1,2-c]pyrimidin-7-yl)oxy)methyl)benzonitrile 2,2,2-trifluoroacetate], the values for the IC50 in experiment [1] and in experiment [2] (setting [3]) were at most 10000 nM and at most 100 nM, respectively.

As to `O=C1CN2c3cc(OCc4ccc(F)c(F)c4)nc(=O)n3CC2CN1CC(F)(F)F` (stereo not drawn) [Example E358, 7-((3,4-Difluorobenzyl)oxy)-2-(2,2,2-trifluoroethyl)-11,11a-dihydro-1Hpyrazino[1′,2′:3,4] imidazo[1,2-c]pyrimidine-3,9(2H,4H)-dione], the values for the IC50 in experiment [1] and in experiment [2] (setting [3]) were at most 10000 nM and at most 100 nM, respectively.

With `CCOC(=O)N1CCN2c3cc(OCc4ccc(F)c(F)c4)nc(=O)n3CC2C1` (stereo not drawn) [Example E306, Ethyl 7-((3,4-difluorobenzyl)oxy)-9-oxo-3,4,11,11a-tetrahydro-1H-pyrazino[1′,2′:3,4]imidazo[1,2-c]pyrimidine-2(9H)-carboxylate], the IC50 in experiment [1] was at most 10000 nM; in experiment [2] (setting [3]) it was at most 100 nM.

Turning to `O=c1nc(OCc2ccc(F)c(F)c2)cc2n1CC1COCCN21` (stereo not drawn) [Example E336, 7-((3,4-Difluorobenzyl)oxy)-3,4,11,11a-tetrahydropyrimido[6′,1′:2,3]imidazo[5,1-c][1,4] oxazin-9(1H)-one], the IC50 in experiment [1] is at most 10000 nM; in experiment [2] (setting [3]) it was at most 100 nM.

On to `N#Cc1cc(COc2cc3n(c(=O)n2)CC2(CCN(Cc4ccccc4)CC2)N3)ccc1F` [Example 412, 5-(((1′-Benzyl-5-oxo-3,5-dihydro-1H-spiro[imidazo[1,2-c]pyrimidine-2,4′-piperidin]-7-yl)oxy)methyl)-2-fluorobenzonitrile], for which the IC50 in experiment [1] is at most 10000 nM; in experiment [2] ((3a) Thio-PAF assay, Examples 1-265 and 413-430 were tested here), at most 10000 nM.

In the case of `[2H]C1([2H])C2CN(S(C)(=O)=O)CCN2c2cc(OCc3ccc(F)c(C#N)c3)nc(=O)n21` (stereo not drawn) [Example E287, 5-(((11,11-Dideutero-2-(methylsulfonyl)-9-oxo-2,3,4,9,11,11a-hexahydro-1H-pyrazino[1′,2′:3,4]imidazo[1,2-c]pyrimidin-7-yl)oxy)methyl)-2-fluorobenzonitrile], the IC50 in experiment [1] was at most 10000 nM; in experiment [2] (setting [3]) it was at most 100 nM.

With `N[C@H]1C[C@@H]2Cn3c(cc(OCc4cc(F)c(Oc5ccnc(C(F)(F)F)c5)c(F)c4)nc3=O)N2C1` [Example E388, (7S,8aR)-7-Amino-3-((3,5-difluoro-4-((2-(trifluoromethyl)pyridin-4-yl)oxy)benzyl)oxy)-7,8,8a,9-tetrahydropyrrolo[1′,2′:3,4]imidazo[1,2-c]pyrimidin-1(6H)-one], the IC50 is at most 1 nM in experiment [1] and at most 100 nM in experiment [2] (setting [3]).

Take `CNC1(C(=O)N2CCN3c4cc(OCc5ccc(F)c(F)c5)nc(=O)n4CC3C2)CC1` (stereo not drawn) [Example E308, 7-((3,4-Difluorobenzyl)oxy)-2-(1-(methylamino)cyclopropanecarbonyl)-3,4,11,11a-tetrahydro-1H-pyrazino[1′,2′:3,4]imidazo[1,2-c]pyrimidin-9(2H)-one]: the IC50 in experiment [1] was at most 10000 nM; in experiment [2] (setting [3]), at most 100 nM.

Regarding `N#Cc1cc(COc2cc3n(c(=O)n2)CC2CN(C(=O)CCN)CCN32)ccc1F` (stereo not drawn) [Example E288, 5-(((2-(3-Aminopropanoyl)-9-oxo-2,3,4,9,11,11a-hexahydro-1H-pyrazino[1′,2′:3,4]imidazo[1,2-c]pyrimidin-7-yl)oxy)methyl)-2-fluorobenzonitrile], the IC50 in experiment [1] was at most 10000 nM; in experiment [2] (setting [3]) it was at most 100 nM.

Turning to `N#Cc1cc(COc2cc3n(c(=O)n2)CC2CN(C(=O)C4(N)CC4)CCN32)ccc1F` (stereo not drawn) [Example E297, 5-(((2-(1-Aminocyclopropanecarbonyl)-9-oxo-2,3,4,9,11,11a-hexahydro-1H-pyrazino[1′,2′:3,4]imidazo[1,2-c]pyrimidin-7-yl)oxy)methyl)-2-fluorobenzonitrile 2,2,2-trifluoroacetate], the values for the IC50 in experiment [1] and in experiment [2] (setting [3]) were at most 10000 nM and at most 100 nM, respectively.

`CCCC(=O)N1CCN2c3cc(OCc4ccc(F)c(C#N)c4)nc(=O)n3CC2C1` (stereo not drawn) [Example E291, 5-(((2-Butyryl-9-oxo-2,3,4,9,11,11a-hexahydro-1H-pyrazino[1′,2′:3,4]imidazo[1,2-c]pyrimidin-7-yl)oxy)methyl)-2-fluorobenzonitrile 2,2,2-trifluoroacetate]: the figures for the IC50 in experiment [1] and in experiment [2] (setting [3]) were at most 10000 nM and at most 100 nM, respectively.

Regarding `NC1(C(=O)N2CCN3c4cc(OCc5ccc(F)c(F)c5)nc(=O)n4CC3C2)CCCCC1` (stereo not drawn) [Example E347, 2-(1-Aminocyclohexanecarbonyl)-7-((3,4-difluorobenzyl)oxy)-3,4,11,11a-tetrahydro-1H-pyrazino[1,2′:3,4]imidazo[1,2-c]pyrimidin-9(2H)-one], the IC50 is at most 10000 nM in experiment [1] and at most 100 nM in experiment [2] (setting [3]).

With `CCOC(=O)C(C)N1CCN2c3cc(OCc4ccc(F)c(F)c4)nc(=O)n3CC2C1` (single isomer, unassigned) [Example E327, Ethyl 2-(7-((3,4-difluorobenzyl)oxy)-9-oxo-3,4,11,11a-tetrahydro-1H-pyrazino[1′,2′:3,4]imidazo[1,2-c]pyrimidin-2(9H)-yl)propanoate], the IC50 in experiment [2] (setting [3]) was at most 100 nM.

The values above are taken from patent US11999746B2, “Compounds” (GlaxoSmithKline Intellectual Property Development Limited, priority 2014, dated 2024).
